Here are results for 23 compounds from US10434116B2 (priority 2014, dated 2019).

The subject of series [1] is MERS-CoV. The settings on record: cited from earlier work.
The test system of series [2] is SARS-CoV. The conditions noted are these: cited from earlier work.
The subject of series [3] is MERS-CoV. The series is described as follows: microbe, parasite or virus in culture. In kind it is cell-based, MERS-CoV strain Hu/Jordan-N3/2012. The conditions noted are these: for EC50: read-out: EC50 against MERS-CoV.
For another series, the system named is MERS-S pseudoparticles. It counts as cell-based, MERS-CoV.
The next series has as its system MERS-CoV (Jordan). Nature of the series: microbe, parasite or virus in culture. It counts as cell-based. The settings on record: Middle East respiratory syndrome-related coronavirus, Vero C1008, read-out: EC50 for MERS-CoV (virus production, TCID50).
For series [4], the system named is SARS-CoV. The series is described as follows: microbe, parasite or virus in culture. It counts as cell-based. The settings on record: Severe acute respiratory syndrome coronavirus, Vero C1008, read-out: EC50 for SARS-CoV (virus production, TCID50).
The test system of series [5] is SARS-CoV. The settings on record: mouse, in vivo; cited from earlier work.
The test system of series [6] is MERS-CoV. The series is described as follows: microbe, parasite or virus in culture. In kind it is cell-based. The settings on record: Middle East respiratory syndrome-related coronavirus, Vero C1008, read-out: IC50 value for MERS-CoV (TCID50 assay).
Series [7] concerns SARS-CoV. The series is described as follows: microbe, parasite or virus in culture. It counts as cell-based. The conditions noted are these: Severe acute respiratory syndrome coronavirus, Vero C1008, read-out: IC50 value for SARS-CoV (TCID50 assay).
The subject of series [8] is SARS-CoV. It counts as cell-based.
For series [9], the system named is MERS-CoV. It counts as cell-based.
[10] abbreviates: Middle East respiratory syndrome-related coronavirus, Vero C1008, 48 h, read-out: MERS-CoV IC50.
Setting [11] is: Middle East respiratory syndrome-related coronavirus, Vero.
Where [12] appears, read: Middle East respiratory syndrome-related coronavirus, Vero C1008, 48 h, read-out: IC50 against MERS-CoV.

“Also recorded” adds a separate entry of the source. Counter-ions that a name gives are not always drawn. Like-named read-outs stand apart in the source and are kept apart here.

As to `COc1c(C)c2c(c(O)c1C/C=C(\C)CCC(=O)O)C(=O)OC2` [mycophenolic acid (MPA), mycophenolic acid], in the series on MERS-CoV [1], the “effect against MERS-CoV infection in vitro” value was “highly effective”. Besides, the “activity against SARS-CoV infection” value in the series with SARS-CoV [2] is given as “little activity”.

The IC50 is the concentration that inhibits the measured activity by half. For the compound `CCSc1ccc2c(c1)N(CCCN1CCN(C)CC1)c1ccccc1S2` [Thiethylperazine maleate], the IC50 with MERS-CoV [3] (setting [10]) stood at 7.87 µM.

In the case of `COc1ccc(C[C@H]2NC[C@H](O)[C@H]2OC(C)=O)cc1` [Anisomycin], in the series on MERS-CoV [3] (read-out: MERS-CoV IC50), the IC50 came out at 0.003 µM.

For `OC(c1cc(C(F)(F)F)nc2c(C(F)(F)F)cccc12)C1CCCCN1` (centres unmarked) [Mefloquine], in the series on MERS-CoV [3] (setting [10]), the IC50 stood at 7.42 µM.

In the case of `Cc1nc(Nc2ncc(C(=O)Nc3c(C)cccc3Cl)s2)cc(N2CCN(CCO)CC2)n1` [dasatinib], the toxicity entry with Vero E6 cells is “low toxicity”.

For orientation: EC50 means the concentration at which the effect is half-maximal. For the compound `Nc1ccn([C@@H]2O[C@H](CO)[C@@H](O)C2(F)F)c(=O)n1` [Gemcitabine hydrochloride], in the series with MERS-CoV [3] (setting [10]), the IC50 was determined as 1.22 µM. For the same compound, the EC50 with MERS-CoV [3] (setting [11]) was found to be 1.2 µM. Further, the “CCF2 signal (fluorescence)” value in the series on MERS-S pseudoparticles is 95 % of control. In addition, the toxicity entry in the series on Vero E6 cells is on record as “low toxicity”.

With `CCN(CC)CCCC(C)Nc1ccnc2cc(Cl)ccc12` (centres unmarked) [Chloroquine Phosphate], the IC50 in the series on MERS-CoV [3] (setting [10]) came out at 6.28 µM. For the same compound, the EC50 with MERS-CoV [3] (setting [11]) was 9.51 µM; in the series on MERS-CoV [3], 6.28 µM; with MERS-CoV (Jordan), 18.4 µM; in the series on SARS-CoV [4], 6.43 µM. Further, in the series on SARS-CoV [5], the “efficacy in reducing SARS-CoV virus titers” value was “did not show efficacy”.

For `Cc1cn(-c2cc(NC(=O)c3ccc(C)c(Nc4nccc(-c5cccnc5)n4)c3)cc(C(F)(F)F)c2)cn1` [Nilotinib], the “activity against MERS-CoV (in words)” value with MERS-CoV [3] is reported as “does not significantly inhibit MERS-CoV”. The “maximum inhibition of MERS-CoV” value in the series on MERS-CoV [3] turned out to be 39%. The results for the IC50 with MERS-CoV [3] (setting [10]), in the series on MERS-CoV [6] and in the series with SARS-CoV [7] were 5.47 µM, 9.53 µM and 2.3 µM, respectively. Moreover, the “inhibition of virus growth, SARS-CoV” value in the series on SARS-CoV [8] is “significant inhibition of virus growth; also recorded: little inhibition of either virus”. For the same compound, in the series on Vero E6 cells, the toxicity entry is “low toxicity”.

On to `CN1CCN(CC/C=C2/c3ccccc3Sc3ccc(S(=O)(=O)N(C)C)cc32)CC1` [Thiothixene], for which, in the series on MERS-CoV [3] (setting [10]), the IC50 was 9.3 µM.

Regarding `CCN(CC)Cc1cc(Nc2ccnc3cc(Cl)ccc23)ccc1O`, the IC50 in the series on MERS-CoV [3] (setting [10]) came to 6.21 µM.

Turning to `CCN(CC)CCOc1ccc(C(O)(Cc2ccc(Cl)cc2)c2ccc(C)cc2)cc1` (centres unmarked) [Triparanol], in the series on MERS-CoV [3] (setting [10]), the IC50 stood at 5.28 µM.

Turning to `O=C1NCN(c2ccccc2)C12CCN(CCCC(c1ccc(F)cc1)c1ccc(F)cc1)CC2` [Fluspirilene], the IC50 in the series on MERS-CoV [3] (setting [10]) amounted to 7.48 µM.

On to `CC(CN1c2ccccc2Sc2ccccc21)N(C)C` (centres unmarked) [Promethazine hydrochloride], for which, in the series on MERS-CoV [3] (setting [10]), the IC50 is 11.8 µM.

As for `COC(=O)C[C@](O)(CCCC(C)(C)O)C(=O)O[C@@H]1C(OC)=C[C@]23CCCN2CCc2cc4c(cc2[C@H]13)OCO4` [Homoharringtonine], the IC50 in the series on MERS-CoV [3] (setting [10]) came to 0.0718 µM.

For `CN(C)CCOc1ccc(/C(=C(/CCCl)c2ccccc2)c2ccccc2)cc1` [Toremifene citrate], in the series with MERS-CoV [3] (setting [10]), the IC50 came to 12.9 µM. Moreover, the EC50 in the series with MERS-CoV [3] (setting [11]) is 12.9 µM. Also, the toxicity result with Vero E6 cells is listed as “low toxicity”.

`CC(C)N1CCN(c2ccc(OCC3COC(Cn4cncn4)(c4ccc(Cl)cc4Cl)O3)cc2)CC1` (centres unmarked) [Terconazole]: the IC50 in the series on MERS-CoV [3] (setting [10]) was determined as 12.2 µM.

Take `CN(C)CCCN1c2ccccc2Sc2ccc(Cl)cc21` [Chlorpromazine hydrochloride]: the IC50 was 5.76 to 12.9 µM in the series with MERS-CoV [3] (setting [12]) and 9.51 µM with MERS-CoV [3] (setting [10]). Also, the EC50 in the series with MERS-CoV (Jordan) is 19.4 µM; in the series with SARS-CoV [4], 4.86 µM. Also, the toxicity entry with Vero E6 cells is recorded as “low toxicity”.

On to `Cc1ccc(NC(=O)c2ccc(CN3CCN(C)CC3)cc2)cc1Nc1nccc(-c2cccnc2)n1` [Imatinib mesylate], for which the “inhibition of virus growth, MERS-CoV” value in the series with MERS-CoV [9] was “significant inhibition of virus growth; also recorded: little inhibition of either virus”. Further, the “inhibition of virus growth, SARS-CoV” value in the series with SARS-CoV [8] is “significant inhibition of virus growth; also recorded: little inhibition of either virus”. Also, the “CCF2 signal (fluorescence)” value in the series with MERS-S pseudoparticles was 7.8 % of control. In addition, the toxicity entry in the series with Vero E6 cells is “low toxicity”.

Regarding `CCN(CCO)CCCC(C)Nc1ccnc2cc(Cl)ccc12` (centres unmarked) [Hydroxychloroquine sulfate], in the series on MERS-CoV [3] (setting [10]), the IC50 was 8.28 µM.

As to `CN(C)CCCN1c2ccccc2Sc2ccc(C(F)(F)F)cc21` [Triflupromazine hydrochloride], the IC50 with MERS-CoV [3] (setting [12]) was 5.76 to 12.9 µM; in the series with MERS-CoV [3] (setting [10]), 5.76 µM; with MERS-CoV [3] (read-out: IC50 against MERS-CoV, hydrochloride) it was 5.76 µM. Also, in the series with Vero E6 cells, the toxicity entry is on record as “low toxicity”.

`COC(=O)Nc1nc2ccc(C(=O)c3cccs3)cc2[nH]1` [nocodazole]: in the series on MERS-CoV [3], the “activity against MERS-CoV (in words)” value was “high activity”.

For the compound `CC[C@H]1CN2CCc3cc(OC)c(OC)cc3[C@@H]2C[C@@H]1C[C@H]1NCCc2cc(OC)c(OC)cc21`, the IC50 with MERS-CoV [3] (setting [10]) turned out to be 0.014 µM.

Regarding `CN(C)CCOC(C)(c1ccccc1)c1ccc(Cl)cc1` (centres unmarked) [Chlorphenoxamine hydrochloride], the concentration for half-maximal inhibition (IC50) in the series with MERS-CoV [3] (setting [10]) is 12.6 µM.
